Assay results taken from patent US20070043034A1, “Chlorine Ion Uptake Modulators and Uses Thereof” (priority 2005, published 2007).

Key:
[1] = tested on: KA-induced rat seizures; assay: Kainic acid (KA) induced seizures in rat pups, EEG recording in vivo; settings: KA 2 mg/kg s.c.
Source text: Kainic Acid (KA) is a commonly used agent for creating an in vivo neonatal-like seizure model in rats for study. It is believed that this seizure model closely parallels human neonatal seizure disorders. KA, a glutamate receptor agonist, was used to induce neonatal-like seizures in postnatal (P) 7-12 day male Wistar rats. The rats were equipped with electrodes including recording and reference electrodes by standard means. There are many known methods for measuring parameters of seizures, in this example electrical signals were digitized using an analogue-to-digital converter for example a DigiData 1322A (Axon Instuments USA). The sampling interval can vary depending on the desired target interval. In this example, the sampling interval per signal was 200 […]s (5 kHz). For data analysis, several computer programs exist for capturing and analyzing these seizure parameters such as Clamp 9.2 (Axon Instruments, USA) and Origon 5.0 (Microcal Software, USA) used here. Interictal spikes were determined by typical means utilizing band-pass filtered raw data.
Many known methods exist for analyzing the power levels of different frequency components in a signal such as a signal recorded from a seizure episode. For example, power spectrum analysis can be performed after applying a Hamming window function. Unless otherwise indicated, power was calculated in 1-2 min time windows by integrating the root mean square value of the signal in frequency bands from 1 to 100 Hz (EEC band) and from 200 to 500 Hz (fast ripple band).
Pharmaceutical compositions of the present invention can be administered to seizure-induced rats to test the seizure modulatory properties of the pharmaceutical composition. In one exemplary method, the inhibition of NKCCl and its affect on seizures in rat pups was studied. Two days after implantation of recording electrodes, six P9-P10 rats received subcutaneous injection of KA (2 mg/kg) and six P9-10 control rats received subcutaneous 0.9% sodium chloride saline injections. 10-20 minutes after KA injection regular pattern of behavioral signs started, involving scratching-like movements of the hindpaws, loss of balance and turning on the side. Recurrent interictal and ictal electroencephalographic patterns occurred 20-80 minutes (61.2±10.4 min; mean±se) after KA injection in all rats from this experimental group (FIG. 4B). […] Interictal spikes usually occurred synchronously in the left and right hemispheres. Frequency of the interictal spikes was 1.43±0.06 Hz (n=23 seizures in 6 rats). Before transition to ictal patterns, interictal spikes were usually followed by fast ripple (100-500 Hz) and gamma-frequency oscillations (20-50 Hz). Tonic-clonic seizures were the most common type of seizures induced by KA in P9-10 rats. Ictal-tonic phase lasted 12.6±1.4 s (16 seizures in 5 rats). Population spikes of 18.7±1.2 Hz were characteristic of the tonic phase of KA-induced seizures (FIG. 4C). Tonic discharges were followed by clonic bursts (FIG. 4C). Large amplitude population spikes followed by 100-200 Hz ripples and 200-1200 ms gamma frequency after discharges characterized the clonic bursts. The mean duration of the clonic phase was 36.4±5 s (25 seizures in 6 rats). The ictal patterns were followed by postictal depression (FIG. 4 B-4C). During ictal EEG activity, motor activity consisted of scratching, jerky movements, turning on the side or on the back and frequent tail shaking. Five to ten recurrent seizures with an average interval 379±24.5 s were followed by periodic epileptiform discharges (PLEDs) (FIG. 4D).
In one exemplary experiment, a pharmaceutical composition of the present invention comprising bumetanide was compared to phenobarbital for effects on KA-induced rat seizures. Two days after implantation of recording electrodes, twenty-two P9-12 age-matched rats received subcutaneous injection with KA (2 mg/kg). […]

[2] = tested on: low-Mg^2+ induced recurrent seizures in the intact hippocampus; assay: Low-Mg2+ ACSF induced recurrent seizures in the intact hippocampus in vitro; type: cell-based, rat; settings: phenobarbital 100 μM, bumetanide 10 μM or both, 120 min application; intact hippocampus of P4-6 rats
Source text: High expression level of the Na^+ K^+-2Cl^− (NKCCl) co-transporter in immature neurons causes the accumulation of chloride ions and a depolarized Cl^− equilibrium potential (ECl). This is linked to a higher seizure propensity and poor EEG response in neonates to the barbiturates and benzodiazepines, conventional anticonvulsant drugs that target Cl^−-permeable GABAA-receptor (GABAA-R) operated channels. […] Recurrent ictal-like seizures were induced by low-Mg^+ ACSF in intact hippocampal preparations in vitro. […] Bumetanide decreased both seizure frequency and seizure power.
FIGS. 11A-11C are graphs of low-Mg^2+πinduced recurrent seizures in the intact hippocampus in vitro. […] First and last seizures from 5 hour recording are shown on an expanded time scale. Right, corresponding power spectra in the 0.1-1000 Hz frequency band. […] Summary data are taken from ten hippocampi. […] Power of the first seizure in each recording was considered as 100%. Data are taken from 18 recordings in 10 preparations from P4-6 rats.
FIGS. 12A-12C are graphs showing low efficiency of phenobarbital in neonatal seizures. FIG. 12A is a graph showing extracellular field potential recording in the CA3 pyramidal cell layer in the intact hippocampus of a P5 rat. Continuous application of low-Mg^2+ ACSF induced recurrent tonic-clonic seizures. […] The right portion corresponds to power spectra in the 0.1-1000 Hz frequency range. […] Data are from ten experiments that were combined. FIG. 12C is a graph showing power of recurrent seizures before, during and after phenobarbital application. Power of the first seizure in each recording was considered as 100%. Seizures were not depressed by phenobarbital indicating its low efficiency.
FIGS. 13A-13C are graphs showing that alteration of Cl^−-transport by bumetanide enhanced efficacy of phenobarbital in neonatal seizures. FIG. 13A is a graph of extracellular field potential recording in the CA3 pyramidal cell layer in the intact hippocampus of a P5 rat. Application of low-Mg^2+ ACSF induced recurrent seizures. […] These are shown on an expanded time scale. The right portion of FIG. 13A is a power spectra of extracellular field potential activity before and during application of drugs. FIG. 13B is a graph showing inter-seizure intervals before, during and after application of drugs. In 75% of experiments seizures were abolished (ISI>120 min) by simultaneous application of phenobarbital and bumetanide. FIG. 13C is a graph showing power of recurrent seizures before, during and after simultaneous application of phenobarbital and bumetanide. Power of the first seizure in each recording was considered as 100%. Seizures were depressed by combination of drugs.
FIGS. 14A and 14B are graphs showing alteration of Cl^−-transport for early-life seizure therapy. […]

[3] = P9-12 rats, phenobarbital 25 mg/kg or bumetanide 0.1-0.2 mg/kg i.p.

Structure (SMILES): CCCCNc1cc(C(=O)O)cc(S(N)(=O)=O)c1Oc1ccccc1 [bumetanide, 3-(aminosulfonyl)-5-(butylamino)-4-phenoxybenzoic acid]
- periodic epileptiform discharges ([1]; bumetanide 0.1-0.2 mg/kg i.p.): occurred in all six rats
- animals with recurrent ictal-clonic activity / EEG clonic seizures ([1]; P9-12 rats, drug i.p. 10 min after KA (phenobarbital 25 mg/kg; bumetanide 0.1-0.2 mg/kg), 6 rats per group): 50%
- duration of ictal-clonic phase [1, 3]: 12.5 ± 1.1 s
- duration of ictal-tonic phase [1, 3]: 9 ± 1.9 s
- frequency of interictal spikes [1, 3]: 1.42 ± 0.07 Hz
- mean duration of single ictal episode (seizure including interictal and ictal phases) [1, 3]: 32 ± 3.9 s
- mean interval between seizures [1, 3]: 360.1 ± 68.6 s
- rats with ictal-tonic pattern / tonic-clonic seizures [1, 3]: 16.7%
- increase of power of EEG activity in the 20 minute window following seizure onset ([1]; compared to pre-ictal baseline, phenobarbital 25 mg/kg or bumetanide 0.1-0.2 mg/kg i.p., saline control 444.7±136.3%): 88.7±24.5%
- seizure frequency [2]: decreased
- seizure power [2]: decreased
